Values after ≈ are worked out from the molar mass of the structure shown. Active and inactive are the calls of the source. The calls are words filed in the database; no cut-off is given here.
Key:
[1] = Selectivity ratio of IC50 for oxidative phosphorylation system-mediated ATP synthesis in bovine heart submitochondrial particle to IC50 for oxidative phosphorylation system-mediated ATP synthesis in Acinetobacter baumannii membranes; format: cell membranes
Acinetobacter baumannii [2] = assay: Antimicrobial activity against Acinetobacter baumannii; format: functional
[3] = Cytotoxicity against mouse NIH/3T3 cells after 1 hr by MTS reduction assay in absence of serum; format: cell-based; conditions: NIH3T3, 1 h
[4] = Inhibition of Electron transport protein complex-dependent oxidative phosphorylation system-mediated ATP synthesis in Acinetobacter baumannii membranes; format: cell membranes
HepG2 = assay: Cytotoxicity against human HepG2 cells after 1 hr by MTS reduction assay in absence of serum; format: cell-based; conditions: HepG2, 1 h
[5] = Half life in mouse liver microsomes; format: ADME
[6] = Inhibition of Electron transport protein complex-dependent oxidative phosphorylation system-mediated ATP synthesis in bovine heart submitochondrial particle; design: species or system Bos taurus
Acinetobacter baumannii [7] = assay: Bactericidal activity against Acinetobacter baumannii at 8 times IC50 by time-kill assay; format: functional, organism-based
Staphylococcus aureus [8] = assay: Antimicrobial activity against Staphylococcus aureus ATCC 25923; format: functional
Acinetobacter baumannii [9] = assay: Inhibition of NDH1-mediated O2 consumption in Acinetobacter baumannii membranes at 50 uM in presence of NADH and ascorbate/TMPD; format: cell membranes
[10] = Half life in human liver microsomes; format: ADME
Klebsiella pneumoniae [11] = assay: Antimicrobial activity against Klebsiella pneumoniae ATCC 13883; format: functional
Escherichia coli [12] = assay: Antimicrobial activity against Escherichia coli ATCC 25922; format: functional
Pseudomonas aeruginosa = assay: Antimicrobial activity against Pseudomonas aeruginosa ATCC 10145; format: functional
Staphylococcus aureus [13] = assay: Antimicrobial activity against methicillin-resistant Staphylococcus aureus USA 300; format: functional
Klebsiella pneumoniae [14] = assay: Antimicrobial activity against Klebsiella pneumoniae ATCC 4352; format: functional
Acinetobacter baumannii [15] = assay: Antimicrobial activity against Acinetobacter baumannii BAA-1606; format: functional
Acinetobacter baumannii [16] = assay: Inhibition of NDH1-mediated O2 consumption in Acinetobacter baumannii membranes at 50 to 100 uM in presence of succinate; format: cell membranes
Klebsiella pneumoniae [17] = assay: Antimicrobial activity against Klebsiella pneumoniae ATCC 13883 in presence of 40% serum; format: functional
Acinetobacter baumannii [18] = assay: Inhibition of NDH1-mediated O2 consumption in Acinetobacter baumannii membranes at 50 uM in presence of NADH; format: cell membranes
Escherichia coli [19] = assay: Antimicrobial activity against Escherichia coli ATCC 25922 in presence of 40% serum; format: functional
Acinetobacter baumannii [20] = assay: Antimicrobial activity against Acinetobacter baumannii ATCC 17978; format: functional

| Ratio IC50 [1] | MIC (Acinetobacter baumannii [2]) [µM] | IC50 [4] [µM] | IC50 [6] [µM] | Compound | IC50 [3] [µM] | IC50 (HepG2) [µM] | other results |
| --- | --- | --- | --- | --- | --- | --- | --- |
| 0.8 | > 100 | 1 | 0.8 | N=c1n(CCCOc2ccc(Cl)cc2Cl)c2ccccc2n1CC(=O)N1CCN(c2ccccc2)CC1.O=C(O)C(F)(F)F | 400 | 1300 | half-life [5]: 25.2 min |
| 1.9 | 25 (≈ 10.5 µg/mL) | 5 | 9.4 | CCN(CC)CCn1c(=N)n(CCCc2ccc(Cl)cc2Cl)c2ccccc21 |  |  | Activity (Acinetobacter baumannii [7]): Active |
| 1.9 | > 100 | 6 | 11.4 | CCN(CC)C(=O)Cn1c(=N)n(CCCOc2ccc(Cl)cc2Cl)c2ccccc21 | 68 | 143 |  |
| 2.5 | 50 (≈ 22.5 µg/mL) | 8 | 20 | CCN(CC)CCCNc1nc2ccccc2n1CCCOc1ccc(Cl)cc1Cl |  |  |  |
| 1 | 25 (≈ 11.6 µg/mL) | 2.8 | 2.9 | CCCN(CCC)CCn1c(=N)n(CCCOc2ccc(Cl)cc2Cl)c2ccccc21 | 28 | 49 |  |
| 6.2 | 50 (≈ 23.1 µg/mL) | 3.6 | 22.4 | N=c1n(CCCOc2ccc(Cl)cc2Cl)c2ccccc2n1CCCN1CCCCC1 | 37 | 83 |  |
| 2.3 | 13 (≈ 5.63 µg/mL) | 2.1 | 4.9 | N=c1n(CCCOc2ccc(Cl)cc2Cl)c2ccccc2n1CCN1CCCC1 | 12 | 67 |  |
| 1.5 | 13 (≈ 6.02 µg/mL) | 1.7 | 2.5 | CC(C)N(CCn1c(=N)n(CCCOc2ccc(Cl)cc2Cl)c2ccccc21)C(C)C | 19 | 39 |  |
|  | 25 (≈ 11.3 µg/mL) | 1.9 | 5.6 | CCN(CC)CCn1c(=N)n(CC(O)COc2ccc(Cl)cc2Cl)c2ccccc21 (configuration not stated) |  |  | Activity (Acinetobacter baumannii [7]): Active; inhibition (Acinetobacter baumannii [18]): Active |
| 1.3 | > 100 | 10 | 13 | CCN(CC)CCCNc1nc2ccccc2n1CC(O)COc1ccc(Cl)cc1Cl (configuration not stated) |  |  |  |
| 1.4 | 50 (≈ 18.2 µg/mL) | 6.4 | 8.8 | CCn1c(=N)n(CCCOc2ccc(Cl)cc2Cl)c2ccccc21 | 24 | 96 |  |
| 0.9 | 25 (≈ 8.41 µg/mL) | 0.9 | 0.8 | Nc1nc2ccccc2n1CCCOc1ccc(Cl)cc1Cl |  |  | MIC (Acinetobacter baumannii [15]): 6.25 µg/mL (≈ 18.6 µM); MIC (Acinetobacter baumannii [20]): 6.25 µg/mL (≈ 18.6 µM) |
| 3.2 | 100 (≈ 44.5 µg/mL) | 1.9 | 6.1 | Cc1noc(C)c1Cn1c(=N)n(CCCOc2ccc(Cl)cc2Cl)c2ccccc21 | 94 | 168 |  |
| 2.7 | > 100 | 18.3 | 49.7 | N=c1n(CCCOc2ccc(Cl)cc2Cl)c2ccccc2n1CCn1ccnc1 | 61 | 137 |  |
| 2.1 | 100 (≈ 44.1 µg/mL) | 3.2 | 6.6 | N=c1n(CCCOc2ccc(Cl)cc2Cl)c2ccccc2n1CCc1ccccn1 | 36 | 60 |  |
| 1.1 | 25 | 2.1 | 2.2 | N=c1n(CCCOc2ccc(Cl)cc2Cl)c2ccccc2n1CCCc1ccccc1.O=C(O)C(F)(F)F | 36 | 65 | half-life [5]: 48.2 min |
| 0.6 | 50 (≈ 27.4 µg/mL) | 1.7 | 1 | CC(C)(C)OC(=O)N1CCC(CCn2c(=N)n(CCCOc3ccc(Cl)cc3Cl)c3ccccc32)CC1 | 25 | 42 |  |
| 1.1 | > 100 | 5.6 | 6 | CCOCCOCCn1c(=N)n(CCCOc2ccc(Cl)cc2Cl)c2ccccc21 | 62 | 151 |  |
| 2.8 | > 100 | 9.2 | 25.5 | N=c1n(CCCOc2ccc(Cl)cc2Cl)c2ccccc2n1CCN1CCOCC1 | 76 | 215 |  |
| 1 | 50 | 0.9 | 0.9 | N=c1n(CCCOc2ccc(Cl)cc2Cl)c2ccccc2n1Cc1ccc(C(F)(F)F)nc1.O=C(O)C(F)(F)F | 22 | 35 | half-life [5]: > 90 min |
| 9.4 | > 100 | 5 | 47 | CCN(CC)CCNc1nc2ccccc2n1CC(O)COc1ccc(Cl)cc1Cl (configuration not stated) |  |  |  |
|  |  |  |  | COLISTIN |  |  | MIC90 (Acinetobacter baumannii [2]): 2 µg/mL |
| 1.2 | > 100 | 7.8 | 9.6 | OC(COc1ccc(Cl)cc1Cl)Cn1c(NCCCN2CCOCC2)nc2ccccc21 (configuration not stated) |  |  |  |
| 0.5 | 50 (≈ 19.6 µg/mL) | 3.8 | 1.8 | CCCCn1c(=N)n(CCCOc2ccc(Cl)cc2Cl)c2ccccc21 | 28 | 72 |  |
| 2.5 | > 100 | 40 | 100 | CCN(CC)CCn1c(N)nc2ccccc21 |  |  |  |
| 1.8 | > 100 | 12 | 21 | CCN(CC)CCn1c(=O)n(CC(O)COc2ccc(Cl)cc2Cl)c2ccccc21 (configuration not stated) |  |  |  |
| 2.6 | > 100 | 41 | 106 | OC(CNCc1nc2ccccc2[nH]1)COc1ccc(Cl)cc1Cl (configuration not stated) |  |  |  |
| 0.9 | > 100 | 3.6 | 3.1 | N=c1n(CCCOc2ccc(Cl)cc2Cl)c2ccccc2n1CCN1CCCC1=O | 99 | 63 |  |
| 2.7 | 100 (≈ 42.1 µg/mL) | 6.9 | 18.3 | CCN(CC)CCn1c(=N)n(CCOc2ccc(Cl)cc2Cl)c2ccccc21 |  |  | Activity (Acinetobacter baumannii [7]): Active |

| Compound | Ratio IC50 [1] | MIC (Acinetobacter baumannii [2]) [µM] | IC50 [4] [µM] | IC50 [6] [µM] | IC50 [3] [µM] | IC50 (HepG2) [µM] | other results |
| --- | --- | --- | --- | --- | --- | --- | --- |
| Br.CCN(CC)CCn1c(=N)n(CCCOc2ccc(Cl)cc2Cl)c2ccccc21 | 3 | 13 | 0.61 | 2.9 | 20 | 83 | MIC (Staphylococcus aureus [8]): 11 µg/mL; inhibition (Acinetobacter baumannii [9]): inactive; half-life [10]: 9.2 min; MIC (Klebsiella pneumoniae [11]): 22 µg/mL; MIC (Escherichia coli [12]): 11 µg/mL; MIC (Pseudomonas aeruginosa): > 22 µg/mL; MIC (Staphylococcus aureus [13]): 5 µg/mL; MIC (Klebsiella pneumoniae [14]): 5 µg/mL; MIC (Acinetobacter baumannii [15]): 12.5 µg/mL; inhibition (Acinetobacter baumannii [16]): inactive; MIC (Klebsiella pneumoniae [17]): > 22 µg/mL; half-life [5]: 13 min; Activity (Acinetobacter baumannii [7]): Active; inhibition (Acinetobacter baumannii [18]): Active; MIC (Escherichia coli [19]): > 22 µg/mL; MIC (Acinetobacter baumannii [20]): 12.5 µg/mL |
